Results as given in PMC7311426, “An amphipathic peptide with antibiotic activity against multidrug-resistant Gram-negative bacteria” (Nature Communications, 2020).
In brackets after ≈: the same amount, converted by molar mass. Like-named read-outs stand apart in the source and are kept apart here. Residues, ends and D or L forms follow the SMILES beside them.

Assays:
B. subtilis = experiment: microbe, parasite or virus in culture; details: for MIC: Bacillus subtilis
Procedure, shortened: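 MICs were scored by eye after 18-20 h static incubation at 37 °C, with bacteria at 5 × 10^5 CFU mL^−1 in MHB. Peptides were serially diluted 2-fold over 12 points, top 128 or 64 μg mL^−1. CAMHB (CLSI) and 1% agarose-MHB variants were also run, at least six replicates.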

E. coli AID#172 [1] = format: in vivo, E. coli in NMRI mice
Experimental: Peritonitis and UTI murine models were performed at the Department of Microbiology & Infection Control, Statens Serum Institute, Copenhagen, Denmark, under approval by the National Committee of Animal Ethics, Denmark, and adhered to the standards of EU Directive 2010/63/EU. The mouse pneumonia model was performed by Evotec Ltd, United Kingdom, under UK Home Office Licenses and with local ethical committee clearance. All animal studies were contracted by Adenium Biotech ApS.
(§1) Peptides were prepared in Ringer’s acetate pH 6.0 (vehicle) at 34 mg mL^−1. Comparator antibiotics included meropenem (Meronem®, AstraZeneca), polymyxin B sulfate (Sigma) and tobramycin (Novartis).
The E. coli peritonitis in vivo model was conducted using an E. coli AID#172 strain in female NMRI mice (Harlan) that were rendered neutropenic by injecting 0.5 mL cyclophosphamide solution (Apodan®) intraperitoneally for 4 days (~200 mg kg^−1) and 1 day (~100 mg kg^−1) prior to inoculation of infection. At time −1 h, mice were inoculated intraperitoneally with 0.5 mL of 2 × 10^6 CFU mL^−1 E. coli AID#172 suspension in the lateral lower quadrant of the abdomen. […] CFU counts were determined from blood and peritoneal fluid at 0 and 5 h after treatment. The mice were anesthetized with Zoletil® and blood was collected by axillary cut down. The mice were killed by cervical dislocation, a total of 2 mL sterile saline was injected i.p. and the abdomen gently massaged before it was opened, fluid sampled with a pipette, and collected for CFU counts on agar.

E. coli AID#172 [2] = format: in vivo, E. coli in NMRI mice; remark: listed apart in the source
Experimental: as §1
The E. coli thigh infection in vivo model was conducted using an E. coli AID#172 strain in female NMRI mice (Taconic) that were rendered neutropenic as above. At time −1 h, mice were inoculated intramuscularly in the quadriceps femoral muscle close to the femur of the left hind leg with 0.05 mL of a suspension of ~1–5 × 10^7 CFU mL^−1 of E. coli (fresh overnight colonies from 5% Horse Blood Agar plate suspended in sterile saline to ~10^8 CFU mL^−1, then diluted) with compound administered intravenously 1 and 12 h post infection (injection over 30 s with 10 mL kg^−1 of 0.6–15 mg kg^−1 AA139 or 5 mg kg^−1 polymyxin B). Colony counts were determined in thighs at 0 and 24 h post infection. The mice were killed by cervical dislocation, the skin was removed and the left hind leg from the hip joint to the hock was collected, cut into at least three parts and frozen at −80 °C. After thawing, the thighs were homogenized in 5 mL saline using a Dispomix® Drive. Each sample was then 10-fold diluted in saline and 20 μL spots were applied on 5% blood agar plates. All agar plates were incubated 18–24 h at 35 °C in ambient air.

[3] = SPR binding to model membrane lipids; design: unit: 100 × RU/MW; details: mean of n = 3
Experimental: (§2) SPR experiments were performed on a Biacore T200 using an L1 sensor chip as previously described. Small unilamellar vesicles (SUVs) were prepared in PBS by sonication and extrusion. Lipids were dissolved in ethanol-free chloroform in 25 mL round-bottom flasks. 10% (mol/mol) of E. coli lipid A, diphosphoryl (Sigma-Aldrich, Cat # L5399) was added into 1,2-dimyristoyl-sn-glycero-3-phosphocholine (DMPC) (Auspep, Cat # 850345P) solution to make lipid A–DMPC mixtures, which were then deposited as a thin film by removal of the solvent (chloroform) under reduced pressure on a rotary evaporator and dried under high vacuum for at least 2 h. PBS was then added into each flask to give a 1 mM (DMPC) suspension, which was sonicated 5 min for five times. […] The SUVs were then injected into the flow cells of the L1 sensor chip for 2000 s at a low flow rate of 2 μL min^−1 to form a bilayer membrane model on the chip surface. Then, a series of peptide solutions (30–0.33 μM in 3-fold dilution), was injected across the flow cells at a flow rate of 30 μL min^−1, having an injection phase of 180 s, and a dissociation phase of 300 s. The binding responses (RU) were normalized by molecular weight (MW) of each peptide. The equation 100 × RU/MW was used for normalization.

[4] = SPR binding to model membrane lipids; design: species or system E. coli; details: for Binding to DMPC with lipid A versus DMPC alone (SPR): 1 µM and 10 µM, 100 × RU/MW at t = 180 s, n = 3, Student's t-test; for SPR response, Difference (Mean1 - Mean2): DMPC minus 10% lipid A-DMPC, multiple t-tests; for SPR response, Mean2 (10% lipid A-DMPC): mean of n = 3
Experimental: as §2

[5] = AA139 3.75 mg kg-1, Meropenem 40 mg kg-1, Dunnett's multiple comparisons test
[6] = MDR E. coli AID #172, AA139 3.75 mg kg-1, Meropenem 40 mg kg-1, mean of n = 3

Molecule	SPR response, Mean1 (DMPC) ([3]; 1uM)	SPR response, Mean1 (DMPC) ([3]; 10uM)	Binding to DMPC with lipid A versus DMPC alone (SPR) [4]	SPR response, Difference (Mean1 - Mean2) ([4]; 1uM)	SPR response, Mean2 (10% lipid A-DMPC) ([4]; 1uM)	SPR response, Difference (Mean1 - Mean2) ([4]; 10uM)	SPR response, Mean2 (10% lipid A-DMPC) ([4]; 10uM)	other results
CC(C)[C@@H]1NC(=O)[C@H](Cc2ccc(O)cc2)NC(=O)[C@H](Cc2c[nH]c3ccccc23)NC(=O)[C@@H](NC(=O)[C@H](Cc2ccccc2)NC(=O)CN)CSSC[C@@H](C(=O)N[C@@H](CC(N)=O)C(=O)O)NC(=O)[C@H](CCCNC(=N)N)NC(=O)[C@H](CCCNC(=N)N)NC(=O)[C@H](Cc2ccc(O)cc2)NC(=O)[C@@H]2CSSC[C@H](NC1=O)C(=O)N[C@@H](C)C(=O)N[C@@H](CCCNC(=N)N)C(=O)N[C@@H](CCCNC(=N)N)C(=O)N[C@@H](CC(N)=O)C(=O)NCC(=O)N[C@@H](C)C(=O)N[C@@H](CCCNC(=N)N)C(=O)N[C@@H](C(C)C)C(=O)N2 [AA139] (HELM PEPTIDE1{G.F.C.W.Y.V.C.A.R.R.N.G.A.R.V.C.Y.R.R.C.N}$PEPTIDE1,PEPTIDE1,3:R3-20:R3|PEPTIDE1,PEPTIDE1,7:R3-16:R3$$$V2.0)								BMD MIC (B. subtilis): 2 µg/mL; ED50 in blood (E. coli AID#172 [1]; mouse, in vivo, iv): 1.55 mg/kg; ED50 in peritoneal fluid (E. coli AID#172 [1]; mouse, in vivo, iv): 1.85 mg/kg; ED50 in thigh (E. coli AID#172 [2]; mouse, in vivo, iv): 4.8 mg/kg
CNC(C)C1CCC(N)C(OC2C(N)CC(N)C(OC3OCC(C)(O)C(NC)C3O)C2O)O1 (centres unmarked) [Gentamicin, gentamicin, reference compound]								MIC (B. subtilis; ATCC6051 / NRS744, read-out: BMD MIC): 0.25 µg/mL (≈ 0.523 µM); MIC (B. subtilis; ATCC6633 / NRS231, read-out: BMD MIC): 0.5 µg/mL (≈ 1.05 µM)
C[C@@H](O)[C@H]1C(=O)N2C(C(=O)O)=C(S[C@@H]3CN[C@H](C(=O)N(C)C)C3)[C@H](C)[C@H]12 [Meropenem, meropenem, reference compound]								Change of CFU levels in peritoneal fluid and blood vs vehicle (E. coli AID#172 [1]; 40 mg kg^−1 i.v., not statistically significant): slight reduction; Blood 5hr, Mean Diff. vehicle vs. treatment (E. coli AID#172 [1]; [5]): 0.6733; PF 5hr, Mean Diff. vehicle vs. treatment (E. coli AID#172 [1]; [5]): 0.08333; Blood 5hr bacterial load, Mean (E. coli AID#172 [1]; [6]): 3.163; PF 5 hr bacterial load, Mean (E. coli AID#172 [1]; [6]): 4.56
colistin	7.037	58.5213	Significant difference	-12.5563	19.5933	-66.912	125.433	
polymyxin B [PolymyxinB, reference compound]	28.3373	126.211	Significant difference	-20.0727	48.41	-95.8227	222.033	Log reduction in thigh CFU compared to saline control (E. coli AID#172 [2]; 5 mg kg^−1, two i.v. doses): 3.13 log
